Patent US11723365B2, “Method for controlling PPO resistant weeds” (BASF SE, priority 2016, dated 2023)

What was measured:
Assay type in all cases: in vivo
[1] = tested on: Amaranthus tamariscinus (common waterhemp, AMATA), sensitive biotype (w.1); experiment: greenhouse experiment, weed control, sensitive common waterhemp (w.1)
Description: (§1) The culture containers used were plastic flowerpots containing loamy sand with approximately 3.0% of humus as the substrate. The seeds of the test plants were sown separately for each species and/or resistant biotype. For the pre-emergence treatment, the active ingredients, which had been suspended or emulsified in water, were applied directly after sowing by means of finely distributing nozzles. The containers were irrigated gently to promote germination and growth and subsequently covered with transparent plastic hoods until the plants had rooted. This cover caused uniform germination of the test plants, unless this had been impaired by the active ingredients. For the post-emergence treatment, the test plants were first grown to a height of 3 to 15 cm, depending on the plant habit, and only then treated with the active ingredients which had been suspended or emulsified in water. For this purpose, the test plants were either sown directly and grown in the same containers, or they were first grown separately as seedlings and transplanted into the test containers a few days prior to treatment. Depending on the species, the plants were kept at 10-25° C. or 20-35° C., respectively. The test period extended over 2 to 4 weeks. During this time, the plants were tended, and their response to the individual treatments was evaluated. The evaluation was carried out by using a scale from 0 to 100. 100 means no emergence of the plants or complete destruction of at least the above-ground parts, and 0 means no damage, or normal course of growth.
(§2) The plants used in a first greenhouse experiment were of the following species and biotype: […]

[2] = tested on: Amaranthus tamariscinus (common waterhemp, AMATA), PPO resistant biotype 1 (w.2); experiment: greenhouse experiment, weed control, PPO resistant biotype 1 (w.2); conditions: for activity on sensitive and resistant weeds (in words): summary of table 2: sensitive (w.1) and resistant weeds (w.2, w.3); for Weed control (%) w.2: scale 0 to 100
Description: as §1, §2

[3] = tested on: Amaranthus tamariscinus (common waterhemp, AMATA), PPO resistant biotype 2 (w.3); experiment: greenhouse experiment, weed control, PPO resistant biotype 2 (w.3); conditions: scale 0 to 100
Description: as §1, §2

[4] = tested on: Amaranthus tamariscinus (common waterhemp, AMATA), sensitive biotype (w.4); experiment: another greenhouse experiment, weed control, sensitive common waterhemp (w.4); conditions: use rate 4 g/ha; scale 0 to 100
Description: as §1, with “100 means no emergence of the plants or complete destruction of at least the above-ground parts, and 0 means no damage, or normal course of growth.” left out

[5] = tested on: Amaranthus tamariscinus (common waterhemp, AMATA), PPO resistant biotype 3 containing the ΔG210 mutation (w.5); experiment: another greenhouse experiment, weed control, PPO resistant biotype 3 (w.5)
Description: as §1, with “100 means no emergence of the plants or complete destruction of at least the above-ground parts, and 0 means no damage, or normal course of growth.” left out

[6] = tested on: Amaranthus tamariscinus (common waterhemp, AMATA), PPO resistant biotype 4 containing the ΔG210 mutation (w.6); experiment: another greenhouse experiment, weed control, PPO resistant biotype 4 (w.6); conditions: use rate 4 g/ha; scale 0 to 100
Description: as §1, with “100 means no emergence of the plants or complete destruction of at least the above-ground parts, and 0 means no damage, or normal course of growth.” left out

[7] = use rate 2 g/ha, scale 0 to 100
[8] = use rate 4 g/ha, scale 0 to 100 (100 = complete destruction, 0 = no damage)

Structure (SMILES) | Weed control (%) w.1 [1, 7] [%] | Weed control (%) w.1 [1, 8] [%] | activity on sensitive and resistant weeds (in words) [2] | Weed control (%) w.2 ([2]; use rate 2 g/ha) [%] | Weed control (%) w.2 ([2]; use rate 4 g/ha) [%] | Weed control (%) w.3 ([3]; use rate 2 g/ha) [%] | Weed control (%) w.3 ([3]; use rate 4 g/ha) [%] | Weed control (%) w.4 [4] [%] | activity on sensitive and resistant weeds (in words) ([5]; summary of table 3: sensitive (w.4) and resistant weeds (w.5, w.6) containing the ΔG210 mutation) | Weed control (%) w.5 ([5]; use rate 4 g/ha, scale 0 to 100) [%] | Weed control (%) w.6 [6] [%]
COC(=O)CCNC(=O)C(C)Sc1cc(-n2c(=O)cc(C(F)(F)F)n(C)c2=O)c(F)cc1Cl (stereo not drawn) [(I).1, tiafenacil] | 90 | 99 | very good activity on both sensitive (w.1) and resistant weeds (w.2, w.3) | 83 | 91 | 78 | 85 | 92 | very good activity on both sensitive (w.4) and resistant weeds (w.5, w.6) | 95 | 88
C#CCOc1cc(-n2nc3n(c2=O)CCCC3)c(Cl)cc1Cl [azafenidin, reference compound] | 95 | 98 | much weaker control of resistant in comparison to sensitive biotypes | 67 | 73 | 70 | 72 | – | – | – | –
